Experimental data: patent publication US9422263B2, “Fluoro-substituted 3,5-dicyano-4-(1H-indazol-5-yl)-2,6-dimethyl-1,4-dihydropyridine derivatives and methods of use thereof” (BAYER PHARMA AKTIENGESELLSCHAFT, priority 2009, dated 2016)
pIC50: −log10 of the molar value.

The compounds below were run against recombinant kinase domain of the human c-Met (amino acids 960-1390) (Homo sapiens (Human), UniProt P08581) (assay: c-Met receptor tyrosine kinase homogeneous time-resolved fluorescence assay (alternative format)). Details: HTRF format; ATP 10 μM.
recombinant kinase domain of the human c-Met (amino acids 960-1390), sequence (P08581 960-1390): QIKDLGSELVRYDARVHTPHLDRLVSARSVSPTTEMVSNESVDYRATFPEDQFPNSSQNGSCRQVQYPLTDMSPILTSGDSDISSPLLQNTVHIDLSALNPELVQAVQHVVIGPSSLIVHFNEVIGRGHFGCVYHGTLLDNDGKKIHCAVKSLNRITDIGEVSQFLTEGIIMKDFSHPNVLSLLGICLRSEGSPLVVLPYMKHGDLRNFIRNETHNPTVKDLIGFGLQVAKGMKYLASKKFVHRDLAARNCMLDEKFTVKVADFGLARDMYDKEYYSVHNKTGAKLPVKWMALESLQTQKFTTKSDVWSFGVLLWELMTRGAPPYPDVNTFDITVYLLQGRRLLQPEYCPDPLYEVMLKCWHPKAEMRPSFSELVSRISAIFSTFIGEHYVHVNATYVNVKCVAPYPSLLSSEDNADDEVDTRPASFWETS
Type: biochemical
Source text: c-Met Receptor Tyrosine Kinase Homogeneous Time-Resolved Fluorescence Assay (Alternative Format):
The N-terminally His6-tagged recombinant kinase domain of the human c-Met (amino acids 960-1390), expressed in insect cells (SF21) and purified by Ni-NTA affinity chromatography and consecutive size exclusion chromatography (Superdex 200), is used. Alternatively, commercially available c-Met (Millipore) can be used. As substrate for the kinase reaction, the biotinylated poly-Glu, Tyr (4:1) copolymer (#61GTOBLC, Cis Biointernational, Marcoule, France) is used.
For the assay, […] of a 100-fold concentrated solution of the test compound in DMSO is pipetted into a black low-volume 384-well microtiter plate (Greiner Bio-One, Frickenhausen, Germany). 2 μL of a solution of c-Met in assay buffer [25 mM Hepes/NaOH, pH 7.5; 5 mM MgCl2; 5 mM MnCl2; 2 mM dithiothreitol; 0.1% (v/v) Tween 20 (Sigma); 0.1% (w/v) bovine serum albumin] are added, and the mixture is incubated for 15 min at 22° C. to allow pre-binding of the test compound to the enzyme before the start of the kinase reaction. Then, the kinase reaction is started by the addition of 3 μL of a solution of adenosine triphosphate (ATP, 16.7 μM; final concentration in the 5 μL assay volume is 10 μM) and substrate (2.27 μg/mL, final concentration in the 5 μL assay volume is 1.36 μg/mL ˜30 nM) in assay buffer, and the resulting mixture is incubated for a reaction time of 30 min at 22° C. The concentration of c-Met in the assay is adjusted depending on the activity of the enzyme lot and is appropriately chosen to have the assay in the linear range; typical enzyme concentrations are in the range of about 0.03 nM (final concentration in the 5 μL assay volume). The reaction is stopped by the addition of 5 μL of a solution of HTRF detection reagents [40 nM streptavidine-X Lent and 2.4 nM PT66-Eu-chelate, an europium-chelate labelled anti-phosphotyrosine antibody (Perkin-Elmer)] in an aqueous EDTA solution [100 mM EDTA, 0.2% (w/v) bovine serum albumin in 50 mM HEPES/NaOH, pH 7.5].
The resulting mixture is incubated for 1 h at 22° C. to allow the binding of the biotinylated phosphorylated peptide to the streptavidine-XLent and the PT66-Eu-chelate. Subsequently, the amount of phosphorylated substrate is evaluated by measurement of the resonance energy transfer from the PT66-Eu-chelate to the streptavidine-XLent. Therefore, the fluorescence emissions at 620 nm and 665 nm after excitation at 350 nm are measured in an HTRF reader, e.g. Rubystar (BMG Lab-technologies, Offenburg, Germany) or Viewlux (Perkin-Elmer). The ratio of the emissions at 665 nm and at […] is taken as the measure for the amount of phosphorylated substrate. The data are normalised (enzyme reaction without inhibitor=0% inhibition; all other assay components but no enzyme=100% inhibition).
A pIC50 of 8.52 was found for `Cc1n[nH]c2cc(F)c(C3C(C#N)=C(C(F)F)NC(C(F)F)=C3C#N)cc12` [Example 14, 2,6-Bis(difluoromethyl)-4-(6-fluoro-3-methyl-1H-indazol-5-yl)-1,4-dihydropyridine-3,5-dicarbonitrile] in this work.
A pIC50 of 8.70 was found for `CC1=C(C#N)C(c2ccc3[nH]nc(C)c3c2)C(C#N)=C(C(F)F)N1` (single isomer, unassigned) [Example 3, 2-(Difluoromethyl)-6-methyl-4-(3-methyl-1H-indazol-5-yl)-1,4-dihydropyridine-3,5-dicarbonitrile] in this work.
A pIC50 of 9.00 was found for `CC1=C(C#N)C(c2ccc3[nH]nc(C)c3c2)C(C#N)=C(C(F)(F)F)N1` (single isomer, unassigned) [Example 6] in this work.
